Test results as given in PubChem BioAssay (NCI).
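Where inhibition never reached the appropriate level, the endpoint shown equals the highest concentration tested. Otherwise, values were interpolated linearly from a five-concentration, 48-hour dose response in 96-well plates. GI50 marks 50% less growth. TGI denotes the concentration required for complete inhibition of growth.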

Key:
Experiment in all cases: growth of human tumour cells (NCI), 48 h
786-0 renal = system: 786-0 renal
A498 renal = system: A498 renal
A549 NSCLC = system: A549 NSCLC
ACHN renal = system: ACHN renal
BT-549 breast = system: BT-549 breast
CAKI-1 renal = system: CAKI-1 renal
CCRF-CEM leukemia = system: CCRF-CEM leukemia
COLO 205 colon = system: COLO 205 colon
DU-145 prostate = system: DU-145 prostate
EKVX NSCLC = system: EKVX NSCLC
HCC-2998 colon = system: HCC-2998 colon
HCT-116 colon = system: HCT-116 colon
HCT-15 colon = system: HCT-15 colon
HL-60(TB) leukemia = system: HL-60(TB) leukemia
HOP-62 NSCLC = system: HOP-62 NSCLC
HOP-92 NSCLC = system: HOP-92 NSCLC
HS 578T breast = system: HS 578T breast
HT29 colon = system: HT29 colon
IGROV1 ovarian = system: IGROV1 ovarian
K-562 leukemia = system: K-562 leukemia
KM12 colon = system: KM12 colon
LOX IMVI melanoma = system: LOX IMVI melanoma
M14 melanoma = system: M14 melanoma
MALME-3M melanoma = system: MALME-3M melanoma
MCF7 breast = system: MCF7 breast
MDA-MB-231 breast = system: MDA-MB-231 breast
MDA-MB-435 = system: MDA-MB-435
MOLT-4 leukemia = system: MOLT-4 leukemia
NCI-H226 lung = system: NCI-H226 lung
NCI-H23 lung = system: NCI-H23 lung
NCI-H460 lung = system: NCI-H460 lung
NCI-H522 lung = system: NCI-H522 lung
NCI/ADR-RES ovarian = system: NCI/ADR-RES ovarian
OVCAR-3 ovarian = system: OVCAR-3 ovarian
OVCAR-4 ovarian = system: OVCAR-4 ovarian
OVCAR-5 ovarian = system: OVCAR-5 ovarian
OVCAR-8 ovarian = system: OVCAR-8 ovarian
PC-3 prostate = system: PC-3 prostate
RPMI-8226 leukemia = system: RPMI-8226 leukemia
RXF 393 renal = system: RXF 393 renal
SF-268 CNS = system: SF-268 CNS
SF-295 CNS = system: SF-295 CNS
SF-539 CNS = system: SF-539 CNS
SK-MEL-2 melanoma = system: SK-MEL-2 melanoma
SK-MEL-28 melanoma = system: SK-MEL-28 melanoma
SK-MEL-5 melanoma = system: SK-MEL-5 melanoma
SK-OV-3 ovarian = system: SK-OV-3 ovarian
SN12C renal = system: SN12C renal
SNB-19 CNS = system: SNB-19 CNS
SNB-75 CNS = system: SNB-75 CNS
SR leukemia = system: SR leukemia
SW-620 colon = system: SW-620 colon
T-47D breast = system: T-47D breast
TK-10 renal = system: TK-10 renal
U251 CNS = system: U251 CNS
UACC-257 melanoma = system: UACC-257 melanoma
UACC-62 melanoma = system: UACC-62 melanoma
UO-31 renal = system: UO-31 renal

What does the source list for CN1CCN(Cc2ccc(NC(=O)c3ccc(C(C)(C)C)c(C#Cc4cnc5cccnn45)c3)cc2C(F)(F)F)CC1?
GI50 (786-0 renal): 1.67 µM; TGI (786-0 renal): 3.24 µM; GI50 (A498 renal): 7.18 µM; TGI (A498 renal): 23.4 µM; GI50 (A549 NSCLC): 1.91 µM; TGI (A549 NSCLC): 3.57 µM; GI50 (ACHN renal): 1.99 µM; TGI (ACHN renal): 3.69 µM; GI50 (BT-549 breast): 15 µM; TGI (BT-549 breast): 28.9 µM; GI50 (CAKI-1 renal): 12.1 µM; TGI (CAKI-1 renal): 26.7 µM; GI50 (CCRF-CEM leukemia): 1.93 µM; TGI (CCRF-CEM leukemia): 4.63 µM; GI50 (COLO 205 colon): 1.8 µM; TGI (COLO 205 colon): 3.43 µM; GI50 (DU-145 prostate): 1.89 µM; TGI (DU-145 prostate): 3.39 µM; GI50 (EKVX NSCLC): 5.8 µM; TGI (EKVX NSCLC): 19.3 µM; GI50 (HCC-2998 colon): 1.83 µM; TGI (HCC-2998 colon): 3.38 µM; GI50 (HCT-116 colon): 1.67 µM; TGI (HCT-116 colon): 3.08 µM; GI50 (HCT-15 colon): 1.21 µM; TGI (HCT-15 colon): 2.66 µM; GI50 (HL-60(TB) leukemia): 2.62 µM; TGI (HL-60(TB) leukemia): 6.5 µM; GI50 (HOP-62 NSCLC): 1.76 µM; TGI (HOP-62 NSCLC): 3.35 µM; GI50 (HOP-92 NSCLC): 12.1 µM; TGI (HOP-92 NSCLC): 27.1 µM; GI50 (HS 578T breast): 10.4 µM; TGI (HS 578T breast): 39.2 µM; GI50 (HT29 colon): 1.68 µM; TGI (HT29 colon): 3.4 µM; GI50 (IGROV1 ovarian): 2.55 µM; TGI (IGROV1 ovarian): 6.99 µM; GI50 (K-562 leukemia): 0.932 µM; TGI (K-562 leukemia): 2.6 µM; GI50 (KM12 colon): 0.861 µM; TGI (KM12 colon): 2.38 µM; GI50 (LOX IMVI melanoma): 1.52 µM; TGI (LOX IMVI melanoma): 2.87 µM; GI50 (M14 melanoma): 1.8 µM; TGI (M14 melanoma): 3.44 µM; GI50 (MALME-3M melanoma): 1.78 µM; TGI (MALME-3M melanoma): 3.97 µM; GI50 (MCF7 breast): 1.82 µM; TGI (MCF7 breast): 3.46 µM; GI50 (MDA-MB-231 breast): 1.97 µM; TGI (MDA-MB-231 breast): 4.14 µM; GI50 (MDA-MB-435): 1.5 µM; TGI (MDA-MB-435): 2.95 µM; GI50 (MOLT-4 leukemia): 1.77 µM; TGI (MOLT-4 leukemia): 4 µM; GI50 (NCI-H226 lung): 4.63 µM; TGI (NCI-H226 lung): 20.1 µM; GI50 (NCI-H23 lung): 1.85 µM; TGI (NCI-H23 lung): 3.89 µM; GI50 (NCI-H460 lung): 2.13 µM; TGI (NCI-H460 lung): 4.52 µM; GI50 (NCI-H522 lung): 2.2 µM; TGI (NCI-H522 lung): 3.95 µM; GI50 (NCI/ADR-RES ovarian): 2.34 µM; TGI (NCI/ADR-RES ovarian): 5.86 µM; GI50 (OVCAR-3 ovarian): 3.55 µM; TGI (OVCAR-3 ovarian): 12.2 µM; GI50 (OVCAR-4 ovarian): 4.64 µM; TGI (OVCAR-4 ovarian): 19.7 µM; GI50 (OVCAR-5 ovarian): 2.71 µM; TGI (OVCAR-5 ovarian): 7.18 µM; GI50 (OVCAR-8 ovarian): 2.58 µM; TGI (OVCAR-8 ovarian): 5.61 µM; GI50 (PC-3 prostate): 1.89 µM; TGI (PC-3 prostate): 4.12 µM; GI50 (RPMI-8226 leukemia): 2.54 µM; TGI (RPMI-8226 leukemia): 6.11 µM; GI50 (RXF 393 renal): 1.8 µM; TGI (RXF 393 renal): 3.4 µM; GI50 (SF-268 CNS): 1.87 µM; TGI (SF-268 CNS): 3.82 µM; GI50 (SF-295 CNS): 1.97 µM; TGI (SF-295 CNS): 3.96 µM; GI50 (SF-539 CNS): 2.03 µM; TGI (SF-539 CNS): 4.14 µM; GI50 (SK-MEL-2 melanoma): 8.8 µM; TGI (SK-MEL-2 melanoma): 22.5 µM; GI50 (SK-MEL-28 melanoma): 1.93 µM; TGI (SK-MEL-28 melanoma): 3.73 µM; GI50 (SK-MEL-5 melanoma): 2.16 µM; TGI (SK-MEL-5 melanoma): 4.86 µM; GI50 (SK-OV-3 ovarian): 11.3 µM; TGI (SK-OV-3 ovarian): 24.4 µM; GI50 (SN12C renal): 9.62 µM; TGI (SN12C renal): 26.4 µM; GI50 (SNB-19 CNS): 2.1 µM; TGI (SNB-19 CNS): 4.14 µM; GI50 (SNB-75 CNS): 1.59 µM; TGI (SNB-75 CNS): 3.09 µM; GI50 (SR leukemia): 0.199 µM; TGI (SR leukemia): 0.512 µM; GI50 (SW-620 colon): 2.04 µM; TGI (SW-620 colon): 4.09 µM; GI50 (T-47D breast): 2.02 µM; TGI (T-47D breast): 5.41 µM; GI50 (TK-10 renal): 2.62 µM; TGI (TK-10 renal): 7.02 µM; GI50 (U251 CNS): 1.97 µM; TGI (U251 CNS): 3.62 µM; GI50 (UACC-257 melanoma): 1.89 µM; TGI (UACC-257 melanoma): 3.68 µM; GI50 (UACC-62 melanoma): 2.08 µM; TGI (UACC-62 melanoma): 4.37 µM; GI50 (UO-31 renal): 1.93 µM; TGI (UO-31 renal): 3.9 µM
